Measured values reported in patent US9029544B2, “Tricyclic pyridine derivatives, medicaments containing such compounds, their use and process for their preparation” (Boehringer Ingelheim International GmbH, priority 2010, dated 2015).

Molecular target: T1, Recombinant human CETP (Homo sapiens, UniProt P11597)
T1 construct: made in house; host or cells: CHO cells (secreted into conditioned medium)
T1 sequence (P11597 18-493): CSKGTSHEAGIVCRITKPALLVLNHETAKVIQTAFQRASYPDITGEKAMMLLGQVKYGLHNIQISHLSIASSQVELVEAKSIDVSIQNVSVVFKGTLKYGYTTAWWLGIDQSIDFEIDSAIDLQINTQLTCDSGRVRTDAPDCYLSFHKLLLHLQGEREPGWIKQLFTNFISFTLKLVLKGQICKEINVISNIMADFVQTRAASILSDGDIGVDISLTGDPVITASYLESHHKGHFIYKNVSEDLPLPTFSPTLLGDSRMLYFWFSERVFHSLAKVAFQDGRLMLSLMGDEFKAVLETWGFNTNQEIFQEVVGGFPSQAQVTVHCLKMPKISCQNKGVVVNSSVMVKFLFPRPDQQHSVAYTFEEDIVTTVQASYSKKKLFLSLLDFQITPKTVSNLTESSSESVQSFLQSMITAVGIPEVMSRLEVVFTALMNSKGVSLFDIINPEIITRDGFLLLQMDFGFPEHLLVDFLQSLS
Assay: CETP in vitro assay (fluorometric assay, Roar Biomedical; cholesterol ester transfer from HDL to LDL)
Type: biochemical
Details: recombinant human CETP from CHO cells; 3 hours at 37° C.; fluorescence 485/535 nm; compound concentrations between 1 nM and 30 μM; read-out: IC50 values for inhibition of CETP
Description: CETP inhibitory activity of compounds of the present invention can be determined in a fluorometric assay purchased from Roar Biomedical, Inc. (New York, N.Y., USA). […] Recombinant human CETP was partially purified from medium conditioned by CETP expressing CHO cells. In a 384 well format 2.5 μl of compound solution in DMSO was combined with 2 μl of donor solution, 2 μl of acceptor solution and 0.8 μl of recombinant human CETP solution in a total volume of 100 μl with assay buffer and incubated for 3 hours at 37° C. The fluorescence intensity was measured at excitation wavelength of 485 nm and emission wavelength of 535 nm. IC50 values are calculated from dose effect curves from compound concentrations between 1 nM and 30 μM.

| SMILES | IC50 |
| --- | --- |
| CC1(C)Cc2nc(C3CCOCC3)c3c(c2[C@@H](O)C1)C1(CCOCC1)O[C@@H]3c1ccc(C(F)(F)F)nc1 [1(76), (3R,9S)-7,7-dimethyl-4-(tetrahydro-2H-pyran-4-yl)-3-(6-(trifluoromethyl)pyridin-3-yl)-2′,3′,5′,6,6′,7,8,9-octahydro-3H-spiro[furo[3,4-c]quinoline-1,4′-pyran]-9-ol] | 886 nM |
| O[C@H]1CC2(CCC2)Cc2nc(C3CCOCC3)c3c(c21)C1(CCOCC1)O[C@@H]3c1ccc(C(F)(F)F)cc1 [1(77), (3R,9S)-7,7-(propan-1,3-diyl)-4-(tetrahydro-2H-pyran-4-yl)-3-(4-(trifluoromethyl)phenyl)-2′,3′,5′,6,6′,7,8,9-octahydro-3H-spiro[furo[3,4-c]quinoline-1,4′-pyran]-9-ol] | 39 nM |
| O[C@H]1CC2(CCC2)Cc2nc(C3CCOCC3)c3c(c21)C1(CCOCC1)O[C@@H]3c1ccc(C(F)(F)F)nc1 [1(78), (3R,9S)-7,7-(propan-1,3-diyl)-4-(tetrahydro-2H-pyran-4-yl)-3-(6-(trifluoromethyl)pyridin-3-yl)-2′,3′,5′,6,6′,7,8,9-octahydro-3H-spiro[furo[3,4-c]quinoline-1,4′-pyran]-9-ol] | 362 nM |
| CC(C)c1nc2c(c3c1[C@@H](c1ccc(C(F)(F)F)c(C#N)c1)OC31CCOCC1)[C@@H](O)CC1(CCC1)C2 [1(79), 5-((3R,9S)-9-hydroxy-4-isopropyl-7,7-(propan-1,3-diyl)-2′,3′,5′,6,6′,7,8,9-octahydro-3H-spiro[furo[3,4-c]quinoline-1,4′-pyran]-3-yl)-2-(trifluoromethyl)benzonitrile] | 18 nM |
| COC(C)c1nc2c(c3c1[C@@H](c1ccc(C(F)(F)F)cc1)OC31CCOCC1)[C@@H](O)CC(C)(C)C2 (stereo partly drawn) [1(81), (3R,9S)-4-(1-methoxyethyl)-7,7-dimethyl-3-(4-(trifluoromethyl)phenyl)-2′,3′,5′,6,6′,7,8,9-octahydro-3H-spiro[furo[3,4-c]quinoline-1,4′-pyran]-9-ol] | 108 nM |
| COC(C)(C)c1nc2c(c3c1[C@@H](c1ccc(C(F)(F)F)cc1)OC31CCOCC1)[C@@H](O)CC(C)(C)C2 [1(83), (3R,9S)-4-(2-methoxypropan-2-yl)-7,7-dimethyl-3-(4-(trifluoromethyl)phenyl)-2′,3′,5′,6,6′,7,8,9-octahydro-3H-spiro[furo[3,4-c]quinoline-1,4′-pyran]-9-ol] | 25 nM |
| CC(C)c1nc2c(c3c1[C@@H](c1ccc(C(F)(F)F)cc1)OC31CCOCC1)[C@@H](O)CC(C)(C)[C@H]2O [4(2), (3R,6R,9S)-4-isopropyl-7,7-dimethyl-3-(4-(trifluoromethyl)phenyl)-2′,3′,5′,6,6′,7,8,9-octahydro-3H-spiro[furo[3,4-c]quinoline-1,4′-pyran]-6,9-diol] | 25 nM |
| CC(C)c1nc2c(c3c1[C@@H](c1ccc(C(C)(C)C)cc1)OC31CCCC1)[C@@H](O)CC(C)(C)[C@@H]2O [4(4), (3′R,6′S,9′S)-3′-(4-tert-butylphenyl)-4′-isopropyl-7′,7′-dimethyl-6′,7′,8′,9′-tetrahydro-3′H-spiro[cyclopentane-1,1′-furo[3,4-c]quinoline]-6′,9′-diol] | 207 nM |
| CC1(C)C[C@H](O)c2c(nc(C3CCOCC3)c3c2C2(CCOCC2)O[C@@H]3c2ccc(C(F)(F)F)c(C#N)c2)[C@@H]1O [4(9), 5-((3R,6R,9S)-6,9-dihydroxy-7,7-dimethyl-4-(tetrahydro-2H-pyran-4-yl)-2′,3′,5′,6,6′,7,8,9-octahydro-3H-spiro[furo[3,4-c]quinoline-1,4′-pyran]-3-yl)-2-(trifluoromethyl)benzonitrile] | 147 nM |
| CC(C)c1nc2c(c3c1[C@@H](c1ccc(C(F)(F)F)c(C#N)c1)OC31CCOCC1)[C@@H](O)CC1(CCC1)[C@H]2O [4(10), 5-((3R,6R,9S)-6,9-dihydroxy-4-isopropyl-7,7-(propan-1,3-diyl)-2′,3′,5′,6,6′,7,8,9-octahydro-3H-spiro[furo[3,4-c]quinoline-1,4′-pyran]-3-yl)-2-(trifluoromethyl)benzonitrile] | 15 nM |
| CC1(C)C[C@H](O)c2c(nc(C3CCOCC3)c3c2C2(CCOCC2)O[C@@H]3c2ccc(C(F)(F)F)cc2)[C@@H]1O [4(11), (3R,6R,9S)-7,7-dimethyl-4-(tetrahydro-2H-pyran-4-yl)-3-(4-(trifluoromethyl)phenyl)-2′,3′,5′,6,6′,7,8,9-octahydro-3H-spiro[furo[3,4-c]quinoline-1,4′-pyran]-6,9-diol] | 255 nM |
| CC(C)(C)c1ccc([C@H]2OC3(CCOCC3)c3c2c(C2CCOCC2)nc2c3[C@@H](O)CC(C)(C)[C@H]2O)cc1 [4(13), (3R,6R,9S)-3-(4-tert-butylphenyl)-7,7-dimethyl-4-(tetrahydro-2H-pyran-4-yl)-2′,3′,5′,6,6′,7,8,9-octahydro-3H-spiro[furo[3,4-c]quinoline-1,4′-pyran]-6,9-diol] | 51 nM |

Continued by falling IC50, values first:

| IC50 | SMILES |
| --- | --- |
| 786 nM | COCc1nc2c(c3c1[C@@H](c1ccc(C(F)(F)F)cc1)OC31CCOCC1)[C@@H](O)CC(C)(C)C2 [1(82), (3R,9S)-4-(methoxymethyl)-7,7-dimethyl-3-(4-(trifluoromethyl)phenyl)-2′,3′,5′,6,6′,7,8,9-octahydro-3H-spiro[furo[3,4-c]quinoline-1,4′-pyran]-9-ol] |
| 127 nM | CC(C)c1nc2c(c3c1[C@@H](c1ccc(C(F)(F)F)nc1)OC31CCCC1)[C@@H](O)CC(C)(C)[C@H]2O [4(1), (3′R,6′R,9′S)-4′-isopropyl-7′,7′-dimethyl-3′-(6-(trifluoromethyl)pyridin-3-yl)-6′,7′,8′,9′-tetrahydro-3′H-spiro[cyclopentane-1,1′-furo[3,4-c]quinoline]-6′,9′-diol] |
| 70 nM | CC1(C)C[C@H](O)c2c(nc(C3CCOCC3)c3c2C2(CCOCC2)O[C@@H]3c2ccc(S(F)(F)(F)(F)F)cc2)[C@@H]1O [4(12), (3R,6R,9S)-7,7-dimethyl-4-(tetrahydro-2H-pyran-4-yl)-3-(4-(pentafluorosulfanyl)phenyl)-2′,3′,5′,6,6′,7,8,9-octahydro-3H-spiro[furo[3,4-c]quinoline-1,4′-pyran]-6,9-diol] |
| 65 nM | N#Cc1cc([C@H]2OC3(CCOCC3)c3c2c(C2CCOCC2)nc2c3[C@@H](O)CC3(CCC3)[C@H]2O)ccc1C(F)(F)F [4(14), 5-((3R,6R,9S)-6,9-dihydroxy-7,7-(propan-1,3-diyl)-4-(tetrahydro-2H-pyran-4-yl)-2′,3′,5′,6,6′,7,8,9-octahydro-3H-spiro[furo[3,4-c]quinoline-1,4′-pyran]-3-yl)-2-(trifluoromethyl)benzonitrile] |
| 47 nM | CC1(C)Cc2nc(C(C)(C)C)c3c(c2[C@@H](O)C1)C1(CCOCC1)O[C@@H]3c1ccc(C(F)(F)F)cc1 [1(80), (3R,9S)-4-tert-butyl-7,7-dimethyl-3-(4-(trifluoromethyl)phenyl)-2′,3′,5′,6,6′,7,8,9-octahydro-3H-spiro[furo[3,4-c]quinoline-1,4′-pyran]-9-ol] |
| 21 nM | CC(C)c1nc2c(c3c1[C@@H](c1ccc(C(C)(C)C)cc1)OC31CCCC1)[C@@H](O)CC(C)(C)[C@H]2O [4(3), (3′R,6′R,9′S)-3′-(4-tert-butylphenyl)-4′-isopropyl-7′,7′-dimethyl-6′,7′,8′,9′-tetrahydro-3′H-spiro[cyclopentane-1,1′-furo[3,4-c]quinoline]-6′,9′-diol] |
| 19 nM | CC1(C)C[C@H](O)c2c(nc(C3CCOCC3)c3c2C2(CCCC2)O[C@@H]3c2ccc(S(F)(F)(F)(F)F)cc2)[C@@H]1O [4(6), (3′R,6′R,9′S)-7′,7′-dimethyl-4′-(tetrahydro-2H-pyran-4-yl)-3′-(4-(pentafluorosulfanyl)phenyl)-6′,7′,8′,9′-tetrahydro-3′H-spiro[cyclopentane-1,1′-furo[3,4-c]quinoline]-6′,9′-diol] |
| 15 nM | CC(C)c1nc2c(c3c1[C@@H](c1ccc(C(F)(F)F)cc1F)OC31CCOCC1)[C@@H](O)CC(C)(C)[C@H]2O [4(5), (3S,6R,9S)-3-(2-fluoro-4-(trifluoromethyl)phenyl)-4-isopropyl-7,7-dimethyl-2′,3′,5′,6,6′,7,8,9-octahydro-3H-spiro[furo[3,4-c]quinoline-1,4′-pyran]-6,9-diol] |
| 14 nM | CC(C)c1nc2c(c3c1[C@@H](c1ccc(S(F)(F)(F)(F)F)cc1)OC31CCOCC1)[C@@H](O)CC1(CCC1)[C@H]2O [4(8), (3R,6R,9S)-4-isopropyl-7,7-(propan-1,3-diyl)-3-(4-(pentafluorosulfanyl)phenyl)-2′,3′,5′,6,6′,7,8,9-octahydro-3H-spiro[furo[3,4-c]quinoline-1,4′-pyran]-6,9-diol] |
| 12 nM | CC(C)c1nc2c(c3c1[C@@H](c1ccc(S(F)(F)(F)(F)F)cc1)OC31CCOCC1)[C@@H](O)CC(C)(C)[C@H]2O [4(7), (3R,6R,9S)-4-isopropyl-7,7-dimethyl-3-(4-(pentafluorosulfanyl)phenyl)-2′,3′,5′,6,6′,7,8,9-octahydro-3H-spiro[furo[3,4-c]quinoline-1,4′-pyran]-6,9-diol] |
